± gives the expanded uncertainty stated by the source.

The conditions of the data set: 298.15 K; 101.33 kPa; Liquid; Vibrating tube method.

`CO` [methanol]: the mass density turned out to be 787 ± 0.5 kg/m3.

Take `CCCCCCC` [heptane]: the mass density turned out to be 680 ± 0.5 kg/m3.

For `OCC(F)(F)F` [2,2,2-trifluoroethanol], the mass density was found to be 1382.4 ± 0.6 kg/m3.

For `CC(C)O` [propan-2-ol], the mass density is listed as 781.4 ± 0.5 kg/m3.

For `C1CCCCC1` [cyclohexane], the mass density was 774 ± 0.5 kg/m3.

For the origin of these results see the NIST ThermoML archive (doi:10.1021/je8001688).
